US20220185832A1, “CD73 INHIBITORS” (BioArdis LLC, priority 2019, published 2022)

Molecular target: T1, Recombinant Human 5′-Nucleotidase (CD73) (Homo sapiens, UniProt P21589)
T1 construct: CHO derived CD73 (Trp27-Lys547), with a C-terminal 6-His tag; 6-His (C); purchased R&D 5795-EN; host or cells: CHO
T1 sequence (P21589 27-547): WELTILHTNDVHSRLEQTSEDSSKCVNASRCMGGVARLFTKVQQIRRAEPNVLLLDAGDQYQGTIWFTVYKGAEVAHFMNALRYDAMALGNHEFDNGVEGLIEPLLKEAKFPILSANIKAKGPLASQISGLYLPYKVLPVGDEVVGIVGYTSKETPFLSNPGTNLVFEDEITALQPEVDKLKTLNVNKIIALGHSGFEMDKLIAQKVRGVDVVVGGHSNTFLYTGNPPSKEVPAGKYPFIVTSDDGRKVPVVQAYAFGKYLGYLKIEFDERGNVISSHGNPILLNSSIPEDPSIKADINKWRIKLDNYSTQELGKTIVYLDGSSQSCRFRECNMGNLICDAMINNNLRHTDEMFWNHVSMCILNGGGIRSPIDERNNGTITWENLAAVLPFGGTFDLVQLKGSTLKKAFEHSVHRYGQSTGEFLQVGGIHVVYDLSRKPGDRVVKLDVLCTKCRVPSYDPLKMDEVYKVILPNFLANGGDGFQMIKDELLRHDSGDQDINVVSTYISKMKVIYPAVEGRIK
Experiment: CD73 Enzyme Assay
Type: biochemical
Conditions: 0.5 nM human CD73, 30 μM AMP, PiColorLock phosphate detection, OD 635 nm; read-out: Potency (IC50)
Text: Soluble recombinant CD73 catalyzes the conversion of adenosine monophosphate (AMP) to adenosine and inorganic phosphate. The phosphate detection reagent, PiColorLock™ (Innova Bioscience, Cat #303-0125) is based on the change in absorbance of the dye malachite green in the presence of inorganic phosphate (Pi) and this property can be exploited to measure any enzyme that generates Pi. Recombinant Human 5′-Nucleotidase (CD73) (R&D #5795-EN, CHO derived CD73 (Trp27-Lys547), with a C-terminal 6-His tag) was used in the enzymatic assay. This assay was run in a 384-well plate format (Corning® NBS™ 384 well plates, Cat #3640). The basic assay procedure involves two steps: 1) Enzyme reaction: The CD73 enzyme (R&D #5795-EN) is incubated in the presence or absence of compounds. AMP (sigma, cat #01930) is added to start the kinase reaction. 2) Detection step: “Gold mix” is added to the assay system, then stabilizers are added. After incubation the absorbance of the solution is read at OD 635 nm. The recorded OD signal is proportional to the enzyme activity.
Briefly, 25 μl human CD73 (0.5 nM final concentration) in the enzymatic buffer solutions (20 mM Tris, 25 mM NaCl, 1 mM MgCl2, pH 7.5, 0.005% Tween-20) were mixed with various concentrations of the test compound (dissolved in 100% DMSO). These solutions were incubated for 15 min at 25° C., and subsequently 25 μl AMP (30 μM final concentration) was added to start the reaction. The final reaction mixture of enzyme-substrate-compound was incubated for 20 min at 37° C. Meanwhile, “Gold mix” was prepared shortly before use by adding 1/100 vol. of accelerator to the PiColorLock™ Gold reagent. 12 μL/well of the “Gold mix” was added to assay plate containing 50 μL enzyme reaction buffer and incubated at 25° C. for 5 min. 5 μL/well stabilizer was added to the assay plate and incubated at 25° C. for 30 min. The absorbance of the well solutions was measured at 635 nm on a Spark 10M instrument (TECAN).
The percent (%) inhibition at each concentration of a compound was calculated relative to the OD value in the Max and Min control wells contained within each assay plate. The Max control wells contained enzyme and substrate as 0% inhibition, and the Min control wells only contained substrate without enzyme as 100% inhibition. The concentrations and percent inhibition values for a test compound are plotted and the concentration of the compound required to achieve 50% inhibition (IC50) was determined with a four-parameter logistic dose response equation.

Row | Compound | IC50
1 | O=P(O)(O)CP(=O)(O)OC[C@H]1O[C@H](c2ccc3c(NCc4ccccc4)nc(Cl)nc3c2)[C@@H](F)[C@@H]1O [Compound 14, [({[(2R,3R,4S, 5R)-5-[4-(benzylamino)-2-chloroquinazolin-7-yl]-4-fluoro-3-hydroxyoxolan-2-yl]methoxy}(hydroxy)phosphoryl)methyl]phosphonic acid] | > 1 µM
2 | CN(c1nc(Cl)nc2cc([C@@H]3O[C@H](COP(=O)(O)CP(=O)(O)O)[C@@H](O)[C@@H]3F)ccc12)C1CCCC1 [Compound 15, (((((2R,3R,4S,5S)-5-(2-chloro-4-(cyclopentyl(methyl)amino)quinazolin-7-yl)-4-fluoro-3-hydroxytetrahydrofuran-2-yl)methoxy)(hydroxy)phosphoryl)methyl)phosphonic acid] | 0.1 to 0.999 µM
3 | O=P(O)(O)CP(=O)(O)OC[C@H]1O[C@@H](c2ccc3c(N4CC5CCCC5C4)nc(Cl)nc3c2)[C@H](O)[C@@H]1O (stereo partly drawn) [Compound 24, [({[(2R,3S,4R,5S)-5-(2-chloro-4-{hexahydro-1H-cyclopenta[c]pyrrol-2-yl}quinazolin-7-yl)-3,4-dihydroxyoxolan-2-yl]methoxy}(hydroxy)phosphoryl)methyl]phosphonic acid] | < 0.01 µM
4 | O=P(O)(O)CP(=O)(O)OC[C@H]1O[C@@H](c2ccc3c(NC4CCC(O)CC4)nc(Cl)nc3c2)[C@H](O)[C@@H]1O (stereo partly drawn) [Compound 26, (((((2R,3S,4R,5S)-5-(2-chloro-4-((4-hydroxycyclohexyl)amino)quinazolin-7-yl)-3,4-dihydroxytetrahydrofuran-2-yl)methoxy)(hydroxy)phosphoryl)methyl)phosphonic acid] | 0.01 to 0.099 µM
5 | O=P(O)(O)CP(=O)(O)OC[C@H]1O[C@@H](c2ccc3c(N4CCCC4)nc(Cl)nc3c2)[C@H](O)[C@@H]1O [Compound 29, (((((2R,3S,4R,5S)-5-(2-chloro-4-(pyrrolidin-1-yl)quinazolin-7-yl)-3,4-dihydroxytetrahydrofuran-2-yl)methoxy)(hydroxy)phosphoryl)methyl)phosphonic acid] | 0.01 to 0.099 µM
6 | O=P(O)(O)CP(=O)(O)OC[C@H]1O[C@@H](c2ccc3c(N4CCc5ccccc54)nc(Cl)nc3c2)[C@H](O)[C@@H]1O [Compound 30, (((((2R,3S,4R,5S)-5-(2-chloro-4-(indolin-1-yl)quinazolin-7-yl)-3,4-dihydroxytetrahydrofuran-2-yl)methoxy)(hydroxy)phosphoryl)methyl)phosphonic acid] | 0.1 to 0.999 µM
7 | O=P(O)(O)CP(=O)(O)OC[C@H]1O[C@@H](c2cccc3c(NCc4ccccc4)nc(Cl)nc23)[C@H](O)[C@@H]1O [Compound 32, (((((2R,3S,4R,5S)-5-(4-(benzylamino)-2-chloroquinazolin-8-yl)-3,4-dihydroxytetrahydrofuran-2-yl)methoxy)(hydroxy)phosphoryl)methyl)phosphonic acid] | 0.1 to 0.999 µM
8 | C[C@@]1(O)[C@H](O)[C@@H](COP(=O)(O)CP(=O)(O)O)O[C@H]1c1ccc2c(NCc3ccccc3)nc(Cl)nc2c1 [Compound 34, (((((2R,3R,4R,5S)-5-(4-(benzylamino)-2-chloroquinazolin-7-yl)-3,4-dihydroxy-4-methyltetrahydrofuran-2-yl)methoxy)(hydroxy)phosphoryl)methyl)phosphonic acid] | > 1 µM
9 | O=P(O)(O)CP(=O)(O)OC[C@H]1O[C@@H](c2ccc3c(N4CCC(c5ccccc5)C4)nc(Cl)nc3c2)[C@H](O)[C@@H]1O (stereo partly drawn) [Compound 35, (((((2R,3S,4R,5S)-5-(2-chloro-4-(3-phenylpyrrolidin-1-yl)quinazolin-7-yl)-3,4-dihydroxytetrahydrofuran-2-yl)methoxy)(hydroxy)phosphoryl)methyl)phosphonic acid] | 0.01 to 0.099 µM
10 | O=P(O)(O)CP(=O)(O)OC[C@H]1O[C@@H](c2ccc3c(N[C@H]4CCOC4)nc(Cl)nc3c2)[C@H](O)[C@@H]1O [Compound 37, (((((2R,3S,4R,5S)-5-(2-chloro-4-(((S)-tetrahydrofuran-3-yl)amino)quinazolin-7-yl)-3,4-dihydroxytetrahydrofuran-2-yl)methoxy)(hydroxy)phosphoryl)methyl)phosphonic acid] | 0.01 to 0.099 µM

The remaining lines, values ahead:

Row | IC50 | Compound
11 | > 1 µM | O=P(O)(O)CP(=O)(O)OC[C@H]1O[C@@H](c2ccc3c(NCc4ccccc4)ncnc3c2)[C@@H](F)[C@@H]1O [Compound 11, [({[(2R,3R,4S,5S)-5-[4-(benzylamino)quinazolin-7-yl]-4-fluoro-3-hydroxyoxolan-2-yl]methoxy}(hydroxy)phosphoryl)methyl]phosphonic acid]
12 | > 1 µM | N#C[C@@]1(c2ccc3c(NCc4ccccc4)nc(Cl)nc3c2)O[C@H](COP(=O)(O)CP(=O)(O)O)[C@@H](O)[C@H]1O [Compound 16, (((((2R,3S,4R,5R)-5-(4-(benzylamino)-2-chloroquinazolin-7-yl)-5-cyano-3,4-dihydroxytetrahydrofuran-2-yl)methoxy)(hydroxy)phosphoryl)methyl)phosphonic acid]
13 | 0.1 to 0.999 µM | O=P(O)(O)CP(=O)(O)OC[C@H]1O[C@@H](c2cc3nc(Cl)nc(NCc4ccccc4)c3cc2F)[C@H](O)[C@@H]1O [Compound 19, (((((2R,3S,4R,5S)-5-(4-(benzylamino)-2-chloro-6-fluoroquinazolin-7-yl)-3,4-dihydroxytetrahydrofuran-2-yl)methoxy)(hydroxy)phosphoryl)methyl)phosphonic acid]
14 | 0.1 to 0.999 µM | CCc1nc(NCc2ccccc2)c2ccc([C@@H]3O[C@H](COP(=O)(O)CP(=O)(O)O)[C@@H](O)[C@H]3O)cc2n1 [Compound 20, [({[(2R,3S,4R,5S)-5-[4-(benzylamino)-2-ethylquinazolin-7-yl]-3,4-dihydroxyoxolan-2-yl]methoxy}(hydroxy)phosphoryl)methyl]phosphonic acid]
15 | 0.01 to 0.099 µM | O=P(O)(O)CP(=O)(O)OC[C@H]1O[C@@H](c2ccc3c(NCC4CCOC4)nc(Cl)nc3c2)[C@H](O)[C@@H]1O (stereo partly drawn) [Compound 21, [({[(2R,3S,4R,5S)-5-[2-chloro-4-[(oxolan-3-ylmethyl)amino]quinazolin-7-yl]-3,4-dihydroxyoxolan-2-yl]methoxy}(hydroxy)phosphoryl)methyl]phosphonic acid]
16 | 0.1 to 0.999 µM | COC1CCC(Nc2nc(Cl)nc3cc([C@@H]4O[C@H](COP(=O)(O)CP(=O)(O)O)[C@@H](O)[C@H]4O)ccc23)CC1 (stereo partly drawn) [Compound 27, [({[(2R,3S,4R,5S)-5-{2-chloro-4-[(4-methoxycyclohexyl)amino]quinazolin-7-yl}-3,4-dihydroxyoxolan-2-yl]methoxy}(hydroxy)phosphoryl)methyl]phosphonic acid]
17 | 0.1 to 0.999 µM | O=P(O)(O)CP(=O)(O)OC[C@H]1O[C@@H](c2ccc3c(OC4CCCC4)nc(Cl)nc3c2)[C@H](O)[C@@H]1O [Compound 33, (((((2R,3S,4R,5S)-5-(2-chloro-4-(cyclopentyloxy)quinazolin-7-yl)-3,4-dihydroxytetrahydrofuran-2-yl)methoxy)(hydroxy)phosphoryl)methyl)phosphonic acid]
18 | 0.01 to 0.099 µM | O=P(O)(O)CP(=O)(O)OC[C@H]1O[C@@H](c2ccc3c(N4CCc5ccccc5C4)nc(Cl)nc3c2)[C@H](O)[C@@H]1O [Compound 36, [({[(2R,3S,4R,5S)-5-[2-chloro-4-(3,4-dihydro-1H-isoquinolin-2-yl)quinazolin-7-yl]-3,4-dihydroxyoxolan-2-yl]methoxy}(hydroxy)phosphoryl)methyl]phosphonic acid]
